Measurements: patent US20230277534A1 (Plexxikon Inc., priority 2011, published 2023)

Tests used:
B-Raf V600E = B-Raf V600E (Homo sapiens (Human), UniProt P15056, V600E); assay: B-Raf V600E kinase biochemical activity assay (AlphaScreen, biotin-MEK1 substrate); details: 100 μM ATP
Outline: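 IC50 was derived from AlphaScreen signal (anti-phospho-MEK1/2 antibody with streptavidin donor and Protein A acceptor beads, 3 h) across 8 compound concentrations. The kinase step ran 45 min at room temperature: 0.1 ng B-Raf V600E, 100 nM biotin-MEK1, 100 μM final ATP, pH 7.0 HEPES with MgCl2/MnCl2.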

[1] = tested on: COLO205 colon adenocarcinoma cells (B-Raf V600E mutation); assay: COLO205 cell growth inhibition (ATPlite); format: cell-based; details: Homo sapiens, COLO 205, 72 h, 3 days
Outline: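 Cells treated for 3 days at 37 °C, 5% CO2 with an 8-point 1:3 dilution series, top final concentration 10 μM, DMSO control. ATPlite luminescence used as a measure of cell number; IC50 from reading versus concentration.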

B-Raf V600E, sequence (P15056 whole entry V600E): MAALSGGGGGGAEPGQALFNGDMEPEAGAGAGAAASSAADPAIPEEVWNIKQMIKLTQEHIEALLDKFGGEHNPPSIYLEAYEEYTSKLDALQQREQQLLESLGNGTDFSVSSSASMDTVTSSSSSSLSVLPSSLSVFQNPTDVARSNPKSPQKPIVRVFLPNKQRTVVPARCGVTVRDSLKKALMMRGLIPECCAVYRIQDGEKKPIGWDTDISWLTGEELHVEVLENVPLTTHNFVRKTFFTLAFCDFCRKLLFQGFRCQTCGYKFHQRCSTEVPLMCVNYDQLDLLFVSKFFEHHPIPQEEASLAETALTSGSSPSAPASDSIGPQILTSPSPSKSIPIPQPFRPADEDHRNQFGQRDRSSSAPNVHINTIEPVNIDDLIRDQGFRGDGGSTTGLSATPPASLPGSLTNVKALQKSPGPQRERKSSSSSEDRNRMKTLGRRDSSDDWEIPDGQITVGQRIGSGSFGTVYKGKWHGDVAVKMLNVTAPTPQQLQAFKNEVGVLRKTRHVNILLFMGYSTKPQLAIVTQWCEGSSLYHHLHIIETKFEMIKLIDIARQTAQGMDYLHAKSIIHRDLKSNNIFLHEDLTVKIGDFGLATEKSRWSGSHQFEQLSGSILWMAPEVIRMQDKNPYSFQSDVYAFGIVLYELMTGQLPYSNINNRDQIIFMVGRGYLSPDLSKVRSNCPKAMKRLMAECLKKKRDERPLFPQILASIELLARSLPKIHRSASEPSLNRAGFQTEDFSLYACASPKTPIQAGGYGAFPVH

Compound	IC50 (B-Raf V600E) [µM]	IC50 [1] [µM]
CCN(C)S(=O)(=O)Nc1ccc(F)c(C(=O)c2c[nH]c3ncc(-c4cnc(N5CCCC5)nc4)cc23)c1F [Compound P-0293, 3-[3-[[ethyl(methyl)sulfamoyl]amino]-2,6-difluoro-benzoyl]-5-(2-pyrrolidin-1-ylpyrimidin-5-yl)-1H-pyrrolo[2,3-b]pyridine]	< 0.1	< 1
CCN(C)S(=O)(=O)Nc1cccc(C(=O)c2c[nH]c3ncc(C4CCC4)cc23)c1F [Compound P-0297, 5-cyclobutyl-3-[3-[[ethyl(methyl)sulfamoyl]amino]-2-fluoro-benzoyl]-1H-pyrrolo[2,3-b]pyridine]	< 0.1	> 1
CCN(C)S(=O)(=O)Nc1cccc(C(=O)c2c[nH]c3ncc(C4CC4)cc23)c1F [Compound P-0298, 5-cyclopropyl-3-[3-[[ethyl(methyl)sulfamoyl]amino]-2-fluoro-benzoyl]-1H-pyrrolo[2,3-b]pyridine]	< 0.1	> 1
Nc1cc(-c2cnc3[nH]cc(C(=O)c4cccc(NS(=O)(=O)N5CCCC5)c4F)c3c2)ncn1 [Compound P-0299, N-[3-[5-(6-aminopyrimidin-4-yl)-1H-pyrrolo[2,3-b]pyridine-3-carbonyl]-2-fluoro-phenyl]pyrrolidine-1-sulfonamide]	< 0.1	> 1
CCN(C)S(=O)(=O)Nc1ccc(F)c(C(=O)c2c[nH]c3ncc(-c4ccc(C(F)(F)F)cc4)cc23)c1F [Compound P-0301, 3-[3-[[ethyl(methyl)sulfamoyl]amino]-2,6-difluoro-benzoyl]-5-[4-(trifluoromethyl)phenyl]-1H-pyrrolo[2,3-b]pyridine]	< 0.1	> 1
CCN(C)S(=O)(=O)Nc1ccc(F)c(C(=O)c2c[nH]c3ncc(-c4ccc(N5CCCC5)cc4)cc23)c1F [Compound P-0303, 3-[3-[[ethyl(methyl)sulfamoyl]amino]-2,6-difluoro-benzoyl]-5-(4-pyrrolidin-1-ylphenyl)-1H-pyrrolo[2,3-b]pyridine]	< 0.1	> 1
CCN(C)S(=O)(=O)Nc1ccc(F)c(C(=O)c2c[nH]c3ncc(-c4ccc(-c5nnc(C)o5)cc4)cc23)c1F [Compound P-0304, 2-[4-[3-[3-[[ethyl(methyl)sulfamoyl]amino]-2,6-difluoro-benzoyl]-1H-pyrrolo[2,3-b]pyridin-5-yl]phenyl]-5-methyl-1,3,4-oxadiazole]	< 0.1	< 1
CCN(C)S(=O)(=O)Nc1ccc(F)c(C(=O)c2c[nH]c3ncc(-c4ccc(-c5nnc(NC)s5)cc4)cc23)c1F [Compound P-0305, 2-[4-[3-[3-[[ethyl(methyl)sulfamoyl]amino]-2,6-difluoro-benzoyl]-1H-pyrrolo[2,3-b]pyridin-5-yl]phenyl]-5-(methylamino)-1,3,4-thiadiazole]	< 0.1	< 1
CCN(C)S(=O)(=O)Nc1ccc(F)c(C(=O)c2c[nH]c3ncc(-c4cncc(C(C)(C)O)c4)cc23)c1F [Compound P-0306, 3-[3-[[ethyl(methyl)sulfamoyl]amino]-2,6-difluoro-benzoyl]-5-[5-(1-hydroxy-1-methyl-ethyl)-3-pyridyl]-1H-pyrrolo[2,3-b]pyridine]	< 0.1	< 1
CCN(C)S(=O)(=O)Nc1ccc(F)c(C(=O)c2c[nH]c3ncc(-c4ccc(C(C)(C)O)nc4)cc23)c1F [Compound P-0307, 3-[3-[[ethyl(methyl)sulfamoyl]amino]-2,6-difluoro-benzoyl]-5-[6-(1-hydroxy-1-methyl-ethyl)-3-pyridyl]-1H-pyrrolo[2,3-b]pyridine]	< 0.1	< 1
CCN(CC)c1ccc(-c2cnc3[nH]cc(C(=O)c4c(F)ccc(NS(=O)(=O)N(C)CC)c4F)c3c2)cc1 [Compound P-0308, 5-[4-(diethylamino)phenyl]-3-[3-[[ethyl(methyl)sulfamoyl]amino]-2,6-difluoro-benzoyl]-1H-pyrrolo[2,3-b]pyridine]	< 0.1	< 1
CCN(C)S(=O)(=O)Nc1ccc(F)c(C(=O)c2c[nH]c3ncc(-c4ccc5c(c4)NC(=O)C5)cc23)c1F [Compound P-0309, 3-[3-[[ethyl(methyl)sulfamoyl]amino]-2,6-difluoro-benzoyl]-5-(2-oxoindolin-6-yl)-1H-pyrrolo[2,3-b]pyridine]	< 0.1	< 1
CCN(C)S(=O)(=O)Nc1ccc(F)c(C(=O)c2c[nH]c3ncc(-c4ccc(-c5noc(C)n5)s4)cc23)c1F [Compound P-0310, 3-[5-[3-[3-[[ethyl(methyl)sulfamoyl]amino]-2,6-difluoro-benzoyl]-1H-pyrrolo[2,3-b]pyridin-5-yl]-2-thienyl]-5-methyl-1,2,4-oxadiazole]	< 0.1	< 1
CCN(C)S(=O)(=O)Nc1ccc(F)c(C(=O)c2c[nH]c3ncc(-c4ccc5nc(N)ncc5c4)cc23)c1F [Compound P-0311, 2-amino-6-[3-[3-[[ethyl(methyl)sulfamoyl]amino]-2,6-difluoro-benzoyl]-1H-pyrrolo[2,3-b]pyridin-5-yl]quinazoline]	< 0.1	< 1
CCN(C)S(=O)(=O)Nc1ccc(F)c(C(=O)c2c[nH]c3ncc(-c4ccc5nc(N(C)C)ncc5c4)cc23)c1F [Compound P-0313, 2-(dimethylamino)-6-[3-[3-1[[ethyl(methyl)sulfamoyl]amino]-2,6-difluoro-benzoyl]-1H-pyrrolo[2,3-b]pyridin-5-yl]quinazoline]	< 0.1	< 1
CCN(C)S(=O)(=O)Nc1ccc(F)c(C(=O)c2c[nH]c3ncc(-c4ccc(C5(O)CC5)cc4)cc23)c1F [Compound P-0314, 3-[3-1[[ethyl(methyl)sulfamoyl]amino]-2,6-difluoro-benzoyl]-5-[4-(1-hydroxycyclopropyl)phenyl]-1H-pyrrolo[2,3-b]pyridine]	< 0.1	< 1
CCN(C)S(=O)(=O)Nc1ccc(F)c(C(=O)c2c[nH]c3ncc(-c4cncs4)cc23)c1F [Compound P-0315, 5-[3-[3-[[ethyl(methyl)sulfamoyl]amino]-2,6-difluoro-benzoyl]-1H-pyrrolo[2,3-b]pyridin-5-yl]thiazole]	< 0.1	< 1
CCN(C)S(=O)(=O)Nc1ccc(F)c(C(=O)c2c[nH]c3ncc(-c4csc(C(C)(C)O)n4)cc23)c1F [Compound P-0316, 4-[3-[3-[[ethyl(methyl)sulfamoyl]amino]-2,6-difluoro-benzoyl]-1H-pyrrolo[2,3-b]pyridin-5-yl]-2-(1-hydroxy-1-methyl-ethyl)thiazole]	< 0.1	< 1
CCN(C)S(=O)(=O)Nc1ccc(F)c(C(=O)c2c[nH]c3ncc(-c4ccc(OC)nn4)cc23)c1F [Compound P-0317, 3-[3-[[ethyl(methyl)sulfamoyl]amino]-2,6-difluoro-benzoyl]-5-(6-methoxypyridazin-3-yl)-1H-pyrrolo[2,3-b]pyridine]	< 0.1	< 1
O=C(c1c(F)ccc(NS(=O)(=O)N2CCCC2)c1F)c1c[nH]c2ncc(-c3cc(N4CCOCC4)ncn3)cc12 [Compound P-0318, N-[2,4-difluoro-3-[5-(6-morpholinopyrimidin-4-yl)-1H-pyrrolo[2,3-b]pyridine-3-carbonyl]phenyl]pyrrolidine-1-sulfonamide]	< 0.1	< 1
O=C(c1cccc(NS(=O)(=O)N2CCCC2)c1F)c1c[nH]c2ncc(-c3cc(N4CCOCC4)ncn3)cc12 [Compound P-0321, N-[2-fluoro-3-[5-(6-morpholinopyrimidin-4-yl)-1H-pyrrolo[2,3-b]pyridine-3-carbonyl]phenyl]pyrrolidine-1-sulfonamide]	< 0.1	< 1
CN1CCN(c2cc(-c3cnc4[nH]cc(C(=O)c5cccc(NS(=O)(=O)N6CCCC6)c5F)c4c3)ncn2)CC1 [Compound P-0322, N-[2-fluoro-3-[5-[6-(4-methylpiperazin-1-yl)pyrimidin-4-yl]-1H-pyrrolo[2,3-b]pyridine-3-carbonyl]phenyl]pyrrolidine-1-sulfonamide]	< 0.1	< 1
CN1CCN(c2cccc(-c3cnc4[nH]cc(C(=O)c5cccc(NS(=O)(=O)N6CCCC6)c5F)c4c3)n2)CC1 [Compound P-0324, N-[2-fluoro-3-[5-[6-(4-methylpiperazin-1-yl)-2-pyridyl]-1H-pyrrolo[2,3-b]pyridine-3-carbonyl]phenyl]pyrrolidine-1-sulfonamide]	< 0.1	< 1
COc1ccnc(-c2cnc3[nH]cc(C(=O)c4cccc(NS(=O)(=O)N5CCCC5)c4F)c3c2)n1 [Compound P-0325, N-[2-fluoro-3-[5-(4-methoxypyrimidin-2-yl)-1H-pyrrolo[2,3-b]pyridine-3-carbonyl]phenyl]pyrrolidine-1-sulfonamide]	< 0.1	> 1
Cc1ccnc(-c2cnc3[nH]cc(C(=O)c4cccc(NS(=O)(=O)N5CCCC5)c4F)c3c2)n1 [Compound P-0326, N-[2-fluoro-3-[5-(4-methylpyrimidin-2-yl)-1H-pyrrolo[2,3-b]pyridine-3-carbonyl]phenyl]pyrrolidine-1-sulfonamide]	< 0.1	> 1
O=C(c1cccc(NS(=O)(=O)N2CC[C@@H](F)C2)c1F)c1c[nH]c2ncc(-c3cnc(C4CC4)nc3)cc12 [Compound P-0327, (3R)—N-[3-[5-(2-cyclopropylpyrimidin-5-yl)-1H-pyrrolo[2,3-b]pyridine-3-carbonyl]-2-fluoro-phenyl]-3-fluoro-pyrrolidine-1-sulfonamide]	< 0.1	< 1
CCNS(=O)(=O)Nc1ccc(F)c(C(=O)c2c[nH]c3ncc(-c4cnc(C5CC5)nc4)cc23)c1F [Compound P-0335, [5-(2-cyclopropylpyrimidin-5-yl)-1H-pyrrolo[2,3-b]pyridin-3-yl]-[3-(ethylsulfamoylamino)-2,6-difluoro-phenyl]methanone]	< 0.1	< 1
